What was measured:
[1] = target: T1, recombinant human Wee1A kinase (Homo sapiens, UniProt P30291); experiment: LanthaScreen Europium (Eu) Kinase Binding Assay, Wee1A kinase (TR-FRET tracer displacement); settings: 30 nM tracer 178, 5 nM Wee1A kinase, 60 minutes at room temperature
T1 construct: full length Wee1A kinase was expressed by baculovirus in insect cells; purchased Invitrogen PV3817; host or cells: insect cells (baculovirus)

ACHN cells = experiment: Cell Titer Glo viability assay in ACHN cells; type: cell-based; settings: Homo sapiens, 144 h, 0.17 to 10,000 nM
Experimental: ACHN renal cell carcinoma cell line (ATCC) was cultured in Minimum Essential Medium Eagle supplemented with 10% fetal calf serum (Sigma), 1% Penicillin-Streptomycin and 10 mM HEPES buffer (HyClone). Cell cultures were kept in a humidified incubator at 37° C. and 5% CO2. Cells were routinely tested for Mycoplasma contamination.
ACHN cells were seeded at a density of 400 cells per well in tissue culture treated 384 well plates (Corning Costar). After overnight incubation, cells were treated with drugs at concentrations ranging from 0.17 to 10,000 nM. Viability compared to untreated control was assessed at 144 h using Cell Titer Glo assay 2.0 (Promega).

[2] = test system: Cdk1 phosphorylated on tyrosine 15; experiment: High-content imaging of pCdk1 Y15 by immunofluorescence in ACHN cells; type: cell-based; settings: Homo sapiens, high-content imaging (IF), 4 h, 7 to 5000 nM, read-out: CDK1 Tyr15 Phosphorylation EC50 (IC50)
How it was run: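 ACHN cells were treated with compounds at 7–5000 nM for 4 h, then fixed, permeabilised and immunostained for pCDK1 Y15, with DAPI as nuclear counterstain. Automated imaging gave the percentage of cells with nuclear pCDK1 Y15 positivity relative to DMSO control. EC50 values came from dose-response curves.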

T1 sequence (P30291 whole entry): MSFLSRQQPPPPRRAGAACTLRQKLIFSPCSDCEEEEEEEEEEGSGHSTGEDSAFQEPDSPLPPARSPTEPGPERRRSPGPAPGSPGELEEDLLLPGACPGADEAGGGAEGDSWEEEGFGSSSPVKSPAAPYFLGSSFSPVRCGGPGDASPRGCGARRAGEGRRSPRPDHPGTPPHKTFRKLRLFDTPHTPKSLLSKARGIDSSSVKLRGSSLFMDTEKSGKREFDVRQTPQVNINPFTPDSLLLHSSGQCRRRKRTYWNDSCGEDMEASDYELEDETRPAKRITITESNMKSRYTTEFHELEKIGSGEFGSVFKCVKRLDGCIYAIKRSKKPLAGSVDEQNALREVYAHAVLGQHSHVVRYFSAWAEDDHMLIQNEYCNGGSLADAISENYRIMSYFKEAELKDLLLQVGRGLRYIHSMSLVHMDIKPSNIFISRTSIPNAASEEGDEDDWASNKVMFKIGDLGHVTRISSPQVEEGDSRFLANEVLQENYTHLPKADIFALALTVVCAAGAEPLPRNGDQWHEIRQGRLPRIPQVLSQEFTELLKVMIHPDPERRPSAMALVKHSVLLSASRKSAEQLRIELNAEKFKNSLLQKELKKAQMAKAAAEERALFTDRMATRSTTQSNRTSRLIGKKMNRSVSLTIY

Structure (SMILES)	IC50 [1] [nM]	EC50 (ACHN cells) [nM]	EC50 [2] [nM]
COc1nc(Nc2cnn(C3CCN(C)CC3)c2)ncc1C(=O)Nc1c(Br)cccc1Br [Compound 212, N-2,6-dibromophenyl-4-methoxy-2-[1-(1-methyl-4-piperidyl)-4-pyrazolylamino]-5-pyrimidinecarboxamide]	≤ 10	≤ 250	100 to 500
COc1nc(Nc2ccc(N3CCC(N(C)C)CC3)c(C)c2)ncc1C(=O)Nc1c(Cl)cccc1Br [Compound 213]	≤ 10	≤ 250	100 to 500
COc1nc(Nc2ccc3c(c2)CN(C)CC3(C)C)ncc1C(=O)Nc1c(Cl)cccc1Cl [Compound 135, N-(2,6-dichlorophenyl)-4-methoxy-2-((2,4,4-trimethyl-1,2,3,4-tetrahydroisoquinolin-7-yl)amino)pyrimidine-5-carboxamide]	≤ 10	250 to 1000	≤ 100
C#Cc1cccc(Cl)c1NC(=O)c1cnc(Nc2ccc(C3CCN(C)CC3)c(C)c2)nc1OC [Compound 129, N-(2-chloro-6-ethynylphenyl)-4-methoxy-2-((3-methyl-4-(1-methylpiperidin-4-yl)phenyl)amino)pyrimidine-5-carboxamide]	≤ 10	250 to 1000	≤ 100
COc1nc(Nc2ccc(C3CCN(C)CC3)c(C)c2)ncc1C(=O)Nc1c(Cl)cccc1Cl [Compound 100, N-(2,6-dichlorophenyl)-4-methoxy-2-((3-methyl-4-(1-methylpiperidin-4-yl)phenyl)amino)pyrimidine-5-carboxamide]	≤ 10	250 to 1000	≤ 100
COc1nc(Nc2ccc(C3CCN(C)CC3)c(C)c2)ncc1C(=O)Nc1c(Cl)cccc1Br [Compound 110, N-(2-bromo-6-chlorophenyl)-4-methoxy-2-((3-methyl-4-(1-methylpiperidin-4-yl)phenyl)amino)pyrimidine-5-carboxamide]	≤ 10	≤ 250	≤ 100
COc1nc(Nc2ccc(C3CCN(C)CC3)c(C)c2)ncc1C(=O)Nc1c(Cl)cccc1C(F)(F)F [Compound 122, N-(2-chloro-6-(trifluoromethyl)phenyl)-4-methoxy-2-((3-methyl-4-(1-methylpiperidin-4-yl)phenyl)amino)pyrimidine-5-carboxamide]	≤ 10	250 to 1000	100 to 500
COc1nc(Nc2ccc3c(c2)CN(C)CC3)ncc1C(=O)Nc1c(Cl)cccc1Cl [Compound 116, N-(2,6-dichlorophenyl)-4-methoxy-2-((2-methyl-1,2,3,4-tetrahydroisoquinolin-7-yl)amino)pyrimidine-5-carboxamide]	≤ 10	250 to 1000	≤ 100
COc1nc(Nc2ccc([C@H]3CCNC3)c(C)c2)ncc1C(=O)Nc1c(Cl)cccc1Br (single isomer, unassigned) [Compound 194]	≤ 10	250 to 1000	100 to 500
COc1nc(Nc2ccc([C@@H]3CCCN(C)C3)c(C)c2)ncc1C(=O)Nc1c(Cl)cccc1Br (single isomer, unassigned) [Compound 197]	≤ 10	≤ 250	100 to 500
CCOc1nc(Nc2cnn(CCCN(C)C)c2)ncc1C(=O)Nc1c(Cl)cccc1Br [Compound 200, N-(2-bromo-6-chlorophenyl)-2-{1-[3-(dimethylamino)propyl]-4-pyrazolylamino}-4-ethoxy-5-pyrimidinecarboxamide]	–	250 to 1000	100 to 500
COc1nc(Nc2ccc(O[C@@H]3CCNC3)c(C)c2)ncc1C(=O)Nc1c(Cl)cccc1Br [Compound 210]	–	250 to 1000	100 to 500
COc1nc(Nc2ccc(N3CCCNCC3)c(C)c2)ncc1C(=O)Nc1c(Cl)cccc1Br [Compound 205]	≤ 10	≤ 250	100 to 500
COc1nc(Nc2ccc(C3CCN(C)CC3)c(C)c2)ncc1C(=O)Nc1c(Cl)ccc(O)c1C [Compound 141, N-(6-chloro-3-hydroxy-2-methylphenyl)-4-methoxy-2-((3-methyl-4-(1-methylpiperidin-4-yl)phenyl)amino)pyrimidine-5-carboxamide]	≤ 10	≤ 250	≤ 100
COc1nc(Nc2ccc(OCCCN(C)C)c(C)c2)ncc1C(=O)Nc1c(Cl)ccc(O)c1C [Compound 158, N-(6-chloro-3-hydroxy-2-methylphenyl)-2-((4-(3-(dimethylamino)propoxy)-3-methylphenyl)amino)-4-methoxypyrimidine-5-carboxamide]	≤ 10	250 to 1000	100 to 500
Cc1cc(Nc2ncc(C(=O)Nc3c(Cl)cccc3Cl)c(OC3CC3)n2)ccc1C1CCN(C)CC1 [Compound 140, 4-cyclopropoxy-N-(2,6-dichlorophenyl)-2-((3-methyl-4-(1-methylpiperidin-4-yl)phenyl)amino)pyrimidine-5-carboxamide]	≤ 10	≤ 250	100 to 500
COc1nc(Nc2ccc([C@@H]3CCNC3)c(C)c2)ncc1C(=O)Nc1c(Cl)cccc1Br (single isomer, unassigned) [Compound 195]	≤ 10	250 to 1000	100 to 500
COc1nc(Nc2ccc(C3CCN(C)CC3)c(C)c2)ncc1C(=O)Nc1c(Cl)ccc(O)c1Cl [Compound 133, N-(2,6-dichloro-3-hydroxyphenyl)-4-methoxy-2-((3-methyl-4-(1-methylpiperidin-4-yl)phenyl)amino)pyrimidine-5-carboxamide]	≤ 10	≤ 250	≤ 100
COc1nc(Nc2cnn([C@@H]3CCCN(C)CC3)c2)ncc1C(=O)Nc1c(Cl)cccc1Cl (single isomer, unassigned) [Compound 188]	≤ 10	–	100 to 500
COc1nc(Nc2ccc(C3CCN(C)CC3)c(C)c2)ncc1C(=O)Nc1c(C)cccc1Br [Compound 108, N-(2-bromo-6-methylphenyl)-4-methoxy-2-((3-methyl-4-(1-methylpiperidin-4-yl)phenyl)amino)pyrimidine-5-carboxamide]	≤ 10	–	100 to 500
COc1nc(Nc2ccc(C3CCN(C)CC3)c(C)c2)ncc1C(=O)Nc1c(Cl)cc(F)cc1Cl [Compound 121, N-(2,6-dichloro-4-fluorophenyl)-4-methoxy-2-((3-methyl-4-(1-methylpiperidin-4-yl)phenyl)amino)pyrimidine-5-carboxamide]	≤ 10	–	100 to 500
COc1nc(Nc2ccc(N3CCNCCC3=O)c(C)c2)ncc1C(=O)Nc1c(Cl)cccc1Cl [Compound 167]	≤ 10	–	100 to 500
COc1nc(Nc2ccc(OCCCN3CCOCC3)c(C)c2)ncc1C(=O)Nc1c(Cl)ccc(O)c1C [Compound 150, N-(6-chloro-3-hydroxy-2-methylphenyl)-4-methoxy-2-((3-methyl-4-(3-morpholinopropoxy)phenyl)amino)pyrimidine-5-carboxamide]	≤ 10	–	> 1000
COc1nc(Nc2cnn([C@H]3CCCN(C)CC3)c2)ncc1C(=O)Nc1c(Cl)cccc1Cl [Compound 189, N-2,6-dichlorophenyl-2-{1-[(S)-1-methyl-4-azepanyl]-4-pyrazolylamino}-4-methoxy-5-pyrimidinecarboxamide]	≤ 10	–	100 to 500
COc1nc(Nc2ccc(C3CCN(C)CC3)c(C)c2)ncc1C(=O)Nc1ccccc1 [Compound 101, 4-methoxy-2-((3-methyl-4-(1-methylpiperidin-4-yl)phenyl)amino)-N-phenylpyrimidine-5-carboxamide]	10 to 100	–	> 1000
CCCOc1cc(Nc2ncc(C(=O)Nc3c(Cl)cccc3Br)c(OC)n2)ccc1C1CCN(C)CC1 [Compound 218, N-(2-bromo-6-chlorophenyl)-4-methoxy-2-((4-(1-methylpiperidin-4-yl)-3-propoxyphenyl)amino)pyrimidine-5-carboxamide]	≤ 10	–	100 to 500
COc1nc(Nc2ccc(C3CCN(C)CC3)c(C#N)c2)ncc1C(=O)Nc1c(Cl)ccc(O)c1C [Compound 157, N-(6-chloro-3-hydroxy-2-methylphenyl)-2-((3-cyano-4-(1-methylpiperidin-4-yl)phenyl)amino)-4-methoxypyrimidine-5-carboxamide]	10 to 100	–	100 to 500
COc1nc(Nc2cnn(C)c2)ncc1C(=O)Nc1c(Cl)ccc(O)c1Cl [Compound 223, N-(2,6-dichloro-3-hydroxyphenyl)-4-methoxy-2-((1-methyl-1H-pyrazol-4-yl)amino)pyrimidine-5-carboxamide]	≤ 10	–	> 1000
COc1cccc(Cl)c1NC(=O)c1cnc(Nc2ccc(C3CCN(C)CC3)c(C)c2)nc1OC [Compound 130, N-(2-chloro-6-methoxyphenyl)-4-methoxy-2-((3-methyl-4-(1-methylpiperidin-4-yl)phenyl)amino)pyrimidine-5-carboxamide]	≤ 10	–	> 1000

Reference: US20260207618A1, “PYRIMIDINE CARBOXAMIDE COMPOUNDS” (Acrivon Therapeutics, Inc., priority 2022, published 2026)
